# Data reported in ChEMBL document CHEMBL1201862, “PubChem BioAssay data set” (2004).
#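 A five-concentration, 48-hour dose response in 96-well plates underlies each endpoint, interpolated linearly between surrounding concentrations. GI50 = concentration required for 50% inhibition of growth.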 Activity calls are given as the source filed them. No stated cut-off is given here; in the data, active = GI50 up to about 1.1 µM and inactive = higher.
# Key:
# Experiment in all cases: DTP human tumour cell line panel, 48 h
# SK-MEL-5 = system: SK-MEL-5
# DLD-1 = system: DLD-1
# HOP-62 = system: HOP-62
# K562 = system: K562
# Malme-3M = system: Malme-3M
# SF-295 = system: SF-295
# EKVX = system: EKVX
# M14 = system: M14
# COLO 205 = system: COLO 205
# UACC-257 = system: UACC-257
# NCI-H460 = system: NCI-H460
# OVCAR-5 = system: OVCAR-5
# U-251 = system: U-251
# SF-539 = system: SF-539
# HOP-92 = system: HOP-92
# SR = system: SR
# TK-10 = system: TK-10
# OVCAR-4 = system: OVCAR-4
# NCI-H226 = system: NCI-H226
# LOX IMVI = system: LOX IMVI
# KM-20L2 = system: KM-20L2
# SK-MEL-2 = system: SK-MEL-2
# NCI-H23 = system: NCI-H23
# UACC-62 = system: UACC-62
# HCC 2998 = system: HCC 2998
# HT-29 = system: HT-29
# KM12 = system: KM12
# SNB-78 = system: SNB-78
# SK-OV-3 = system: SK-OV-3
# DMS-273 = system: DMS-273
# OVCAR-3 = system: OVCAR-3
# SW-620 = system: SW-620
# A549 = system: A549
# HCT-116 = system: HCT-116
# A498 = system: A498
# HL-60 = system: HL-60
# OVCAR-8 = system: OVCAR-8
# XF498 = system: XF498
# HCT-15 = system: HCT-15
# SN12C = system: SN12C
# M19-MEL = system: M19-MEL
# SNB-75 = system: SNB-75
# MOLT-4 = system: MOLT-4
# CCRF-CEM = system: CCRF-CEM
# IGROV-1 = system: IGROV-1
# SNB-19 = system: SNB-19
# RXF 393 = system: RXF 393
# SF-268 = system: SF-268
# SK-MEL-28 = system: SK-MEL-28
# ACHN = system: ACHN
# LXFL 529 = system: LXFL 529
# NCI-H522 = system: NCI-H522
# DMS-114 = system: DMS-114
# UO-31 = system: UO-31
# CAKI-1 = system: CAKI-1
# 786-0 = system: 786-0
# HOP-18 = system: HOP-18
structure (smiles),measurement,setting,value
N#C/N=N/c1cc(Cl)c(/N=N/C#N)cc1Cl,GI50,SK-MEL-5,> 100 µM (inactive)
same,GI50,DLD-1,> 100 µM (inactive)
same,GI50,HOP-62,> 100 µM (inactive)
same,GI50,K562,27.1 µM (inactive)
same,GI50,Malme-3M,> 100 µM (inactive)
same,GI50,SF-295,> 100 µM (inactive)
same,GI50,EKVX,> 100 µM (inactive)
same,GI50,M14,> 100 µM (inactive)
same,GI50,COLO 205,97.5 µM (inactive)
same,GI50,UACC-257,> 100 µM (inactive)
same,GI50,NCI-H460,> 100 µM (inactive)
same,GI50,OVCAR-5,> 100 µM (inactive)
same,GI50,U-251,> 100 µM (inactive)
same,GI50,SF-539,> 100 µM (inactive)
same,GI50,HOP-92,> 100 µM (inactive)
same,GI50,SR,34.8 µM (inactive)
same,GI50,TK-10,> 100 µM (inactive)
same,GI50,OVCAR-4,47 µM (inactive)
same,GI50,NCI-H226,> 100 µM (inactive)
same,GI50,LOX IMVI,38.6 µM (inactive)
same,GI50,KM-20L2,> 100 µM (inactive)
same,GI50,SK-MEL-2,> 100 µM (inactive)
same,GI50,NCI-H23,> 100 µM (inactive)
same,GI50,UACC-62,> 100 µM (inactive)
same,GI50,HCC 2998,> 100 µM (inactive)
same,GI50,HT-29,> 100 µM (inactive)
same,GI50,KM12,> 100 µM (inactive)
same,GI50,SNB-78,> 100 µM (inactive)
same,GI50,SK-OV-3,> 100 µM (inactive)
same,GI50,DMS-273,> 100 µM (inactive)
same,GI50,OVCAR-3,> 100 µM (inactive)
same,GI50,SW-620,35.3 µM (inactive)
same,GI50,A549,> 100 µM (inactive)
same,GI50,HCT-116,> 100 µM (inactive)
same,GI50,A498,> 100 µM (inactive)
same,GI50,HL-60,34.7 µM (inactive)
same,GI50,OVCAR-8,> 100 µM (inactive)
same,GI50,XF498,> 100 µM (inactive)
same,GI50,HCT-15,> 100 µM
same,GI50,SN12C,> 100 µM (inactive)
same,GI50,M19-MEL,> 100 µM (inactive)
same,GI50,SNB-75,51.9 µM (inactive)
same,GI50,MOLT-4,40.9 µM (inactive)
same,GI50,CCRF-CEM,19.8 µM (inactive)
same,GI50,IGROV-1,> 100 µM (inactive)
same,GI50,SNB-19,> 100 µM (inactive)
same,GI50,RXF 393,> 100 µM (inactive)
same,GI50,SF-268,> 100 µM (inactive)
same,GI50,SK-MEL-28,> 100 µM (inactive)
same,GI50,ACHN,> 100 µM (inactive)
same,GI50,LXFL 529,28.3 µM (inactive)
same,GI50,NCI-H522,51.3 µM (inactive)
same,GI50,DMS-114,> 100 µM (inactive)
[O-]c1c2cc(-[n+]3c(-c4ccccc4)cc(-c4ccccc4)cc3-c3ccccc3)cc1COCCOCCOCCOCCOC2,GI50,DLD-1,44 µM (inactive)
same,GI50,HOP-62,37 µM (inactive)
same,GI50,K562,34 µM (inactive)
same,GI50,Malme-3M,34.2 µM (inactive)
same,GI50,SF-295,43.8 µM (inactive)
same,GI50,EKVX,33.9 µM (inactive)
same,GI50,M14,37.4 µM (inactive)
same,GI50,COLO 205,18.7 µM (inactive)
same,GI50,UACC-257,24 µM (inactive)
same,GI50,OVCAR-5,> 100 µM (inactive)
same,GI50,U-251,38.8 µM (inactive)
same,GI50,SF-539,33 µM (inactive)
same,GI50,HOP-92,26 µM (inactive)
same,GI50,UO-31,85.3 µM (inactive)
same,GI50,CAKI-1,> 100 µM (inactive)
same,GI50,SR,26.2 µM (inactive)
same,GI50,TK-10,57.5 µM (inactive)
same,GI50,OVCAR-4,59.4 µM (inactive)
same,GI50,NCI-H226,> 100 µM (inactive)
same,GI50,786-0,54.5 µM (inactive)
same,GI50,LOX IMVI,43 µM (inactive)
same,GI50,KM-20L2,31.3 µM (inactive)
same,GI50,SK-MEL-2,21.7 µM (inactive)
same,GI50,NCI-H23,41.9 µM (inactive)
same,GI50,UACC-62,19.5 µM (inactive)
same,GI50,HCC 2998,41.7 µM (inactive)
same,GI50,HT-29,35.6 µM (inactive)
same,GI50,KM12,20.4 µM (inactive)
same,GI50,SK-OV-3,57.8 µM (inactive)
same,GI50,DMS-273,45.9 µM (inactive)
same,GI50,SW-620,48.9 µM (inactive)
same,GI50,A549,60 µM (inactive)
same,GI50,HOP-18,57.3 µM (inactive)
same,GI50,HCT-116,32.8 µM (inactive)
same,GI50,HL-60,31.8 µM (inactive)
same,GI50,OVCAR-8,31.5 µM (inactive)
same,GI50,HCT-15,73.6 µM
same,GI50,SN12C,38.8 µM (inactive)
same,GI50,M19-MEL,30.8 µM (inactive)
same,GI50,SNB-75,41.7 µM (inactive)
same,GI50,MOLT-4,32.1 µM (inactive)
same,GI50,CCRF-CEM,43.6 µM (inactive)
same,GI50,SNB-19,73.5 µM (inactive)
same,GI50,SF-268,29 µM (inactive)
same,GI50,SK-MEL-28,18 µM (inactive)
same,GI50,ACHN,> 100 µM (inactive)
same,GI50,LXFL 529,21.2 µM (inactive)
same,GI50,NCI-H522,35.6 µM (inactive)
